According to US10011568B2, “Cyclohexyl pyridine derivative” (priority 2014, dated 2018):

Experiments:
human NK1 receptor [1] = target: T1, human NK1 receptor (Homo sapiens (Human), UniProt P25103); test: Affinity for human NK1 receptor (125I-substance P receptor binding test, membrane fraction); settings: membrane fraction of human NK1 receptor-expressing 293T cells; read-out: IC50 (nM), concentration required for 50% inhibition of 125I-substance P binding
Description: Affinity for Human NK1 Receptor
(3) Measurement of Binding Affinity to Human NK1 Receptor
(3-1) Preparation of Membrane Fraction from Human NK1 Receptor-Expressing Cells
Human NK1 receptor-expressing cells were prepared in a 175 cm^2 culture flask (Nippon Becton Dickinson). The formation of a complex of the human NK1 receptor expression plasmid and Lipofectamine 2000 was performed by calculating the culture area ratio and increasing the scale of the method described in the above 2-4 by the ratio. The human NK1 receptor-expressing cells were collected in a buffer solution for the membrane fraction preparation (50 mM Tris (Wako Pure Chemical), 120 mM sodium chloride (Wako Pure Chemical Industries), 5 mM potassium chloride (Wako Pure Chemical Industries), 1 mM ethylenediaminetetraacetic acid (Sigma), 0.002 mg/mL chymostatin (Peptide Institute), 0.04 mg/bacitracin (Wako Pure Chemical Industries), 0.005 mg/mL phosphoramidon (Peptide Institute) and 0.5 mM phenylmethylsulfonyl fluoride (Wako Pure Chemical Industries), pH7.4) and centrifuged at 1,880 g for 10 minutes, and the cell sediment was suspended in the buffer solution for the membrane fraction preparation. After freezing and thawing the cells once, the cells were homogenized using a Dounce-type homogenizer (cooled on ice, 1000 rpm, 20 times) The homogenized cell suspension was centrifuged at 20,000 rpm for 10 minutes, and the supernatant was removed to obtain cell sediment. The cell sediment was suspended again in the buffer solution for the membrane fraction preparation and homogenized using a Dounce-type homogenizer (cooled on ice, 1000 rpm, 30 times). The cell suspension was centrifuged at 20,000 rpm for 10 minutes, and the supernatant was removed to obtain cell sediment. The same homogenization and centrifugation were repeated again, and final cell sediment was obtained. The final cell sediment was suspended in a buffer solution for the receptor binding test (50 mM Tris (Wako Pure Chemical Industries). 3 mM manganese chloride (Wako Pure Chemical Industries), 0.002 mg/mL chymostatin (Peptide Institute), 0.04 mg/bacitracin (Wako Pure Chemical Industries) and 0.02% bovine serum albumin (Sigma), pH 7.4), and the protein concentration was measured using BCA Protein Assay Kit (Pierce).
(3-2) Receptor Binding Test
The buffer solution for the receptor binding test was dispensed to the wells of a 96-well assay plate (Greiner) at 22.5 μL/well. DMSO solutions of a test compound, which were prepared at an 80-time higher concentration using 100% dimethyl sulfoxide (DMSO), were added to the wells at 2.5 μL/well (final concentrations of 1 nM to 100 nM), and the solutions were mixed. As a radiolabeled ligand, ^125I-substance P (Substance P, [^125I]Tyr^8-, Perkin Elmer) was used. ^125I-substance P was diluted with the buffer solution for the receptor binding test to a concentration resulting in 125 pmol/25 μL/well and added to the 96-well assay plate, and the solutions were mixed. The membrane fraction prepared from the human NK1 receptor-expressing cells was diluted with the buffer solution for the receptor binding test to a concentration resulting in 8 to 10 μg/well, suspended until the suspension became in such a homogenous state that the suspension could flow through a 27G injection needle smoothly and then added to the 96-well assay plate at 150 μL/well. Then, the plate was incubated at room temperature for 60 minutes while shaking the plate. The reaction solutions were suction-filtered through a multiscreen 96-well filter plate (Millipore) which had been pre-treated with 0.3% polyethyleneimine, and the reaction was terminated by washing with a washing solution (50 mM Tris and 0.02% bovine serum albumin, pH 7.4) four times. The bottom of the microplate was dried at 60° C., and then 100 μL/well of MicroScint 20 (PerkinElmer) was dispensed to the wells. The top of the plate was sealed with TopSeal A (PerkinElmer), and the plate was shaken for 5 to 10 minutes. […]

human NK1 receptor [2] = target: T1, human NK1 receptor; test: Inhibitory effect on human NK1 receptor (substance P-induced increase in intracellular calcium concentration); assay type: cell-based; settings: substance P 1 μM, compound 0.1 μM; read-out: SPRR (%), Substance P-Response Remaining (intracellular calcium concentration)
Description: Inhibitory Effect on Human NK1 Receptor
(1) Preparation of Human NK1 Receptor-Expressing Cells
Human NK1 receptor-expressing cells were prepared by the same methods as those described in 2-3 of Test Example 1.
(2) Study on Inhibitory Effect on Increase in Intracellular Calcium Concentration
The human NK1 receptor-expressing cells were washed with 300 μL/well of a washing solution (20 mM HEPES/Hank's Balanced Salt Solution (HBSS) pH 7.3). A fluorescent calcium indicator (Fluo-4 Direct Calcium Assay Kit, Life Technologies, containing 0.42 mM probenecid and 0.1% bovine serum albumin, prepared according to the protocol of the product) was added to the wells at 150 μL/well, and the plate was incubated at 37° C. for 30 minutes in an incubator. Then. DMSO solutions of a test compound, which were prepared at an 80-time higher concentration using 100% dimethyl sulfoxide (DMSO), were added to the wells at 2.5 μL/well (final concentrations of 0.1, 1 and 10 μM), and the solutions were mixed. Then, the plate was further incubated at […] for 30 minutes in an incubator. After 30 minutes, the intracellular calcium concentrations were measured immediately.
The intracellular calcium concentrations were each measured as a fluorescent signal using FDSS (registered trademark) 7000 (Hamamatsu Photonics). A substance P (Peptide Institute. Inc.) solution which was prepared at 0.4 μM or 4 μM using an assay buffer (20 mM HEPES/Hank's Balanced Salt Solution (HBSS) pH 7.3, containing 0.1% bovine serum albumin) was added automatically to each well at 50 μL/well (final concentration of 0.1 or 1 μM) 10 seconds after starting reading, and the fluorescent signal was measured up to 120 seconds.
The intracellular calcium concentration (%) of the cells to which a test compound was added was calculated by the equation below, where the fluorescent signal of the group to which the vehicle (DMSO) was added was regarded as 100%, and the fluorescent signal before the addition of substance P was regarded as 0%. Intracellular calcium concentration (%)—(Fluorescent signal of test compound addition group)/(Fluorescent signal of vehicle addition group)×100
The intracellular calcium concentration (%) calculated was regarded as the remaining agonist activity of substance P (Substance P-Response Remaining: SPRR). In the table, Ex. No. means the Example number. SPRR (%) is the value obtained when the concentration of substance P was 1 μM and the concentration of the compound was 0.1 μM.

T1 sequence (P25103 whole entry): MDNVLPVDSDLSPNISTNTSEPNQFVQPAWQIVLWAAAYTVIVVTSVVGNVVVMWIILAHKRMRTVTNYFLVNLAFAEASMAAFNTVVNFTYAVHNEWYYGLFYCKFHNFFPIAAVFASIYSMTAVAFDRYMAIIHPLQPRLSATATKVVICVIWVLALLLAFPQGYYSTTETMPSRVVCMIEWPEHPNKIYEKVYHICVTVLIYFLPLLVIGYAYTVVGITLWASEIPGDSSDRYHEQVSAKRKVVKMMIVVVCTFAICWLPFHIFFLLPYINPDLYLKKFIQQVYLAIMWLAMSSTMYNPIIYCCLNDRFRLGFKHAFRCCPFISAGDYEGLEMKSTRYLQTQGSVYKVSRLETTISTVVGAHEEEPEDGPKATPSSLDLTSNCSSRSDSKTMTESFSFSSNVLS

Compound	IC50 (human NK1 receptor [1])	remaining activity at 0.1 µM (human NK1 receptor [2])
Cc1cc(F)ccc1-c1cc([C@H]2CC[C@H](CC(=O)O)CC2)ncc1N(C)C(=O)C(C)(C)c1cc(C(F)(F)F)cc(C(F)(F)F)c1 [Example 13, trans-{4-[5-{[2-(3,5-Bistrifluoromethylphenyl)-2-methylpropionyl]methylamino}-4-(4-fluoro-2-methylphenyl)pyridin-2-yl]cyclohexyl}acetic acid]	1.62 nM	5.1%
Cc1cc(F)ccc1-c1cc(C2CCC3(CC2)CC3C(=O)O)ncc1N(C)C(=O)C(C)(C)c1cc(C(F)(F)F)cc(C(F)(F)F)c1 (centres unmarked) [Example 7, 6-[5-{[2-(3,5-Bistrifluoromethylphenyl)-2-methylpropionyl]methylamino}-4-(4-fluoro-2-methylphenyl)pyridin-2-yl]spiro[2.5]octane-1-carboxylic Acid]	1.63 nM	9.4%
Cc1ccccc1-c1cc(C2CCC(CC(=O)O)CC2)nc(C#N)c1N(C)C(=O)C(C)(C)c1cc(C(F)(F)F)cc(C(F)(F)F)c1 (centres unmarked) [Example 16, [4-(5-{[2-(3,5-Bistrifluoromethylphenyl)-2-methylpropionyl]methylamino}-6-cyano-4-ortho-tolylpyridin-2-yl)cyclohexyl]acetic Acid]	2.78 nM	37%
Cc1cc(F)ccc1-c1cc(C2CCC(C(=O)O)CC2)ncc1N(C)C(=O)C(C)(C)c1cc(C(F)(F)F)cc(C(F)(F)F)c1 (centres unmarked) [Example 1, 4-[5-{[2-(3,5-Bistrifluoromethylphenyl)-2-methylpropionyl]methylamino}-4-(4-fluoro-2-methylphenyl)pyridin-2-yl]cyclohexanecarboxylic Acid]	1.45 nM	20%
Cc1cc(F)ccc1-c1cc([C@H]2CC[C@H](C(C)(C)C(=O)O)CC2)ncc1N(C)C(=O)C(C)(C)c1cc(C(F)(F)F)cc(C(F)(F)F)c1 [Example 11, trans-2-{4-[5-{[2-(3,5-Bistrifluoromethylphenyl)-2-methylpropionyl]methylamino}-4-(4-fluoro-2-methylphenyl)pyridin-2-yl]cyclohexyl}-2-methylpropionic Acid]	6.75 nM	5.4%
Cc1cc(F)ccc1-c1cc(C2(C)CCCC(CC(=O)O)C2)ncc1N(C)C(=O)C(C)(C)c1cc(C(F)(F)F)cc(C(F)(F)F)c1 (centres unmarked) [Example 4, {3-[5-{[2-(3,5-Bistrifluoromethylphenyl)-2-methylpropionyl]methylamino}-4-(4-fluoro-2-methylphenyl)pyridin-2-yl]-3-methylcyclohexyl}acetic Acid]	2.35 nM	57%
Cc1cc(F)ccc1-c1cc(C2CCCC(CC(=O)O)C2)ncc1N(C)C(=O)C(C)(C)c1cc(C(F)(F)F)cc(C(F)(F)F)c1 (centres unmarked) [Example 3, {3-[5-{[2-(3,5-Bistrifluoromethylphenyl)-2-methylpropionyl]methylamino}-4-(4-fluoro-2-methylphenyl)pyridin-2-yl]cyclohexyl}acetic Acid]	2.1 nM	36%
Cc1cc(F)ccc1-c1cc(C2CCC(CC(=O)O)CC2)nc(C#N)c1N(C)C(=O)C(C)(C)c1cc(C(F)(F)F)cc(C(F)(F)F)c1 (centres unmarked) [Example 8, {4-[5-{[2-(3,5-Bistrifluoromethylphenyl)-2-methylpropionyl]methylamino}-6-cyano-4-(4-fluoro-2-methylphenyl)pyridin-2-yl]cyclohexyl}acetic Acid]	4.01 nM	31%
Cc1cc(F)ccc1-c1cc([C@H]2CC[C@@H](CC(=O)O)CC2)nc(C#N)c1N(C)C(=O)C(C)(C)c1cc(C(F)(F)F)cc(C(F)(F)F)c1 [Example 21, cis-{4-[5-{[2-(3,5-bistrifluoromethylphenyl)-2-methylpropionyl]methylamino}-6-cyano-4-(4-fluoro-2-methylphenyl)pyridin-2-yl]cyclohexyl}acetic acid]	2.36 nM	36%
Cc1cc(F)ccc1-c1cc(C2CCC(C(C)C(=O)O)CC2)ncc1N(C)C(=O)C(C)(C)c1cc(C(F)(F)F)cc(C(F)(F)F)c1 (centres unmarked) [Example 10, 2-{4-[5-{[2-(3,5-Bistrifluoromethylphenyl)-2-methylpropionyl]methylamino}-4-(4-fluoro-2-methylphenyl)pyridin-2-yl]cyclohexyl}propionic Acid]	2.79 nM	8.6%
Cc1cc(F)ccc1-c1cc([C@H]2CC[C@@H](CC(=O)O)CC2)ncc1N(C)C(=O)C(C)(C)c1cc(C(F)(F)F)cc(C(F)(F)F)c1 [Example 14, cis-{4-[5-{[2-(3,5-bistrifluoromethylphenyl)-2-methylpropionyl]methylamino}-4-(4-fluoro-2-methylphenyl)pyridin-2-yl]cyclohexyl}acetic acid]	2.21 nM	22%
Cc1ccccc1-c1cc(C2CCC(CC(=O)O)CC2)ncc1N(C)C(=O)C(C)(C)c1cc(C(F)(F)F)cc(C(F)(F)F)c1 (centres unmarked) [Example 9, {4-[5-{[2-(3,5-Bistrifluoromethylphenyl)-2-methylpropionyl]methylamino}-4-ortho-tolylpyridine-yl]-cyclohexyl}acetic Acid]	2.35 nM	42%
Cc1cc(F)ccc1-c1cc([C@H]2CC[C@H](CC(=O)O)CC2)nc(C#N)c1N(C)C(=O)C(C)(C)c1cc(C(F)(F)F)cc(C(F)(F)F)c1 [Example 20, trans-{4-[5-{[2-(3,5-Bistrifluoromethylphenyl)-2-methylpropionyl]methylamino}-6-cyano--4-(4-fluoro-2-methylphenyl)-pyridin-2-yl]cyclohexyl}acetic acid]	3.27 nM	2.8%
